Measured values reported in PMC6437697 (Journal of Medicinal Chemistry, 2019).

What was measured:
Assay in all cases: KINOMEscan
Assay type in all cases: binding
Conditions in all cases: read-out: % control activity remaining
ACVR1B = target: T1, ACVR1B (Homo sapiens, UniProt P36896)
T1 construct: purchased Eurofins DiscoverX KINOMEscan
T1 sequence (P36896 24-505): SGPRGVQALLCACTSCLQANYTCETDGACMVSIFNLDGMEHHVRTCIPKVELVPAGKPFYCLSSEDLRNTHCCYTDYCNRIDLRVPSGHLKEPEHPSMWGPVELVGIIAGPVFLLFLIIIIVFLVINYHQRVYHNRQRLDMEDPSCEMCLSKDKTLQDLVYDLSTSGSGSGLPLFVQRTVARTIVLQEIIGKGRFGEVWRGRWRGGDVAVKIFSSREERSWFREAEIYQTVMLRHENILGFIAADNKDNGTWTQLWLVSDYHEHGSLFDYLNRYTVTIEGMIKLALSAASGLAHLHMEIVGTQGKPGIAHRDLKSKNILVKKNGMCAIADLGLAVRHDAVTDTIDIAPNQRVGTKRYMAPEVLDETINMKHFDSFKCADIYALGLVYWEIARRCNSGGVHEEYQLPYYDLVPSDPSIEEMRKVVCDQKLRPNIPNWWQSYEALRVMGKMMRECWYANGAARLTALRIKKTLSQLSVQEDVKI

BTK = target: T2, BTK (Homo sapiens, UniProt Q06187)
T2 construct: purchased Eurofins DiscoverX KINOMEscan

AMPK-alpha1 = target: T3, AMPK-alpha1 (Homo sapiens, UniProt Q13131)
T3 construct: purchased Eurofins DiscoverX KINOMEscan

CDK4-cyclinD1 = target: T4, CDK4-cyclinD1 (Homo sapiens, UniProt P11802)
T4 construct: purchased Eurofins DiscoverX KINOMEscan

ULK3 = target: T5, ULK3 (Homo sapiens, UniProt Q6PHR2)
T5 construct: purchased Eurofins DiscoverX KINOMEscan
T5 sequence (Q6PHR2 1-472): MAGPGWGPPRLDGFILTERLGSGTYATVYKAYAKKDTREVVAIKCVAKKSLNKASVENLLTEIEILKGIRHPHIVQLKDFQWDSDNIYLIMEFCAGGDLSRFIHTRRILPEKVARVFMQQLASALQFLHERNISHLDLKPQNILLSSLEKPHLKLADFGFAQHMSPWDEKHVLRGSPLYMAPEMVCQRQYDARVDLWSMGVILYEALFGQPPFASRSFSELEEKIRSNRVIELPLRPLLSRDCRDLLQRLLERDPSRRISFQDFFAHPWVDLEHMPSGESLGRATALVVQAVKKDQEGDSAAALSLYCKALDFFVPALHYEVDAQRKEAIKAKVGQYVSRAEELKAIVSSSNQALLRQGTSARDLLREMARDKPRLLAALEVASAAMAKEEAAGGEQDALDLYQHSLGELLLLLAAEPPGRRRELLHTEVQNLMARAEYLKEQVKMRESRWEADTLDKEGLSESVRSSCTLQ

MAP4K5 = target: T6, MAP4K5 (Homo sapiens, UniProt Q9Y4K4)
T6 construct: purchased Eurofins DiscoverX KINOMEscan

PFTAIRE2 = target: T7, PFTAIRE2 (Homo sapiens, UniProt Q96Q40)
T7 construct: purchased Eurofins DiscoverX KINOMEscan

PIK3CA(M1043I) = target: T8, PIK3CA(M1043I) (Homo sapiens, UniProt P42336, M1043I)
T8 construct: purchased Eurofins DiscoverX KINOMEscan

TYRO3 = target: T9, TYRO3 (Homo sapiens, UniProt Q06418)
T9 construct: purchased Eurofins DiscoverX KINOMEscan
T9 sequence (Q06418 41-890): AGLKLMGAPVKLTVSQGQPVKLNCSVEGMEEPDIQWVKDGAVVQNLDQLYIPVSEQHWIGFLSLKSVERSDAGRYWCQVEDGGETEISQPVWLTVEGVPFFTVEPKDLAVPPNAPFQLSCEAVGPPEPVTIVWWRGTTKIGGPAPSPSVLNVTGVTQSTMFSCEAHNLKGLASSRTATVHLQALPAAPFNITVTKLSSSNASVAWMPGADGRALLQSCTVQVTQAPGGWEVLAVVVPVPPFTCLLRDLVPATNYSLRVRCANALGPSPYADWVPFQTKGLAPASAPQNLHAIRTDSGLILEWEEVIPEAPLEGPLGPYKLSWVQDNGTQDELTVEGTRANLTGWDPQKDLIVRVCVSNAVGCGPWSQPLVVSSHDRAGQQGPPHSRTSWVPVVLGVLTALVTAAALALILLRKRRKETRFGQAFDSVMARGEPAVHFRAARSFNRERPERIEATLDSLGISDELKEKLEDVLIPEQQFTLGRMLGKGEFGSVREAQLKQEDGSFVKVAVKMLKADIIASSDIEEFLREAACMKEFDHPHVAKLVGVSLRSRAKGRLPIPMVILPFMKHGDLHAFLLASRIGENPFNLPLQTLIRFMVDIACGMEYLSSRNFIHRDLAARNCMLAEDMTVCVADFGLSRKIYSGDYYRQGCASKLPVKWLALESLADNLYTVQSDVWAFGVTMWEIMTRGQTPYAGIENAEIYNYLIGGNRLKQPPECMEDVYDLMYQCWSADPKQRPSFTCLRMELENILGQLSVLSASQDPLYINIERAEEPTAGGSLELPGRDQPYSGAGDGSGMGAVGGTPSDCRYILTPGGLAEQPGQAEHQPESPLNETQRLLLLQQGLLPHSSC

PHKG1 = target: T10, PHKG1 (Homo sapiens, UniProt Q16816)
T10 construct: purchased Eurofins DiscoverX KINOMEscan
T10 sequence (Q16816 whole entry): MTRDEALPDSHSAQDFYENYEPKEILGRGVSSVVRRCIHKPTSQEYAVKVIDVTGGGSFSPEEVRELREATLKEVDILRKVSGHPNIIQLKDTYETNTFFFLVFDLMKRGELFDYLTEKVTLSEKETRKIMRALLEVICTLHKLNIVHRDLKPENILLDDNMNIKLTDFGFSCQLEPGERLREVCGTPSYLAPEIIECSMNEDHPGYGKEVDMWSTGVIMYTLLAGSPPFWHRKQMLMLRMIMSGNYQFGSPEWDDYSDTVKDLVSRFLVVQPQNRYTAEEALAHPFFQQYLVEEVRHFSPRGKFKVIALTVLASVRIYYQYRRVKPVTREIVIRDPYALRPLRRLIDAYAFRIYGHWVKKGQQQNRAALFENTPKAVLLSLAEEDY

T7 sequence (Q96Q40 whole entry): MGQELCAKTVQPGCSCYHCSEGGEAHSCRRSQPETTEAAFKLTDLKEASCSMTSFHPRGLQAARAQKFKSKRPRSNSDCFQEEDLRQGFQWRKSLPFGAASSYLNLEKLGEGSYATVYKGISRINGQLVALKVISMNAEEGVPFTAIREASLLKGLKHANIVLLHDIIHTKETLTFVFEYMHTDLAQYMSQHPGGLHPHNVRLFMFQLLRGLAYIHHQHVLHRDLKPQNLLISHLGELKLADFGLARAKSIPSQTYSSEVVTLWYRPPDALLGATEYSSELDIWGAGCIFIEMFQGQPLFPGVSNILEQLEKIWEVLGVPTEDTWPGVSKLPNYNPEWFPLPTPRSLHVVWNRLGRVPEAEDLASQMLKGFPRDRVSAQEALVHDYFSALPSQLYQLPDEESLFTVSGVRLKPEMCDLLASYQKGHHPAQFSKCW
T2 sequence (Q06187 whole entry): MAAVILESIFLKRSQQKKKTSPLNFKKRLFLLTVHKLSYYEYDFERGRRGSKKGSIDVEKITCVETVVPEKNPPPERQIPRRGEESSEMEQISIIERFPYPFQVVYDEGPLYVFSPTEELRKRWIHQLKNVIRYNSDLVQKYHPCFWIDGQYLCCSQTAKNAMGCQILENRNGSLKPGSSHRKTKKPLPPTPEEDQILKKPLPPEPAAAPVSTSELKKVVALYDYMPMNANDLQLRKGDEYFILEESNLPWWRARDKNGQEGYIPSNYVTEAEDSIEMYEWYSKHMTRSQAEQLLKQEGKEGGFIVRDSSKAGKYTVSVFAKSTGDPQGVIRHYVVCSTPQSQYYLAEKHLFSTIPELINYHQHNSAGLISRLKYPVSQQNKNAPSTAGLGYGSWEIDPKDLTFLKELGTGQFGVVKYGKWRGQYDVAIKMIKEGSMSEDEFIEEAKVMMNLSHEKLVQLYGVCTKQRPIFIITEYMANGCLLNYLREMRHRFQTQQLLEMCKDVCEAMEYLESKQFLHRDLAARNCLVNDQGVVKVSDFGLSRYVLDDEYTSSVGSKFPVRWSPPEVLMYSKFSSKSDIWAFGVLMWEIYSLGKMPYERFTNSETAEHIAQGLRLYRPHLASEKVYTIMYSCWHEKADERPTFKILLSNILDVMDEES
T4 sequence (P11802 whole entry): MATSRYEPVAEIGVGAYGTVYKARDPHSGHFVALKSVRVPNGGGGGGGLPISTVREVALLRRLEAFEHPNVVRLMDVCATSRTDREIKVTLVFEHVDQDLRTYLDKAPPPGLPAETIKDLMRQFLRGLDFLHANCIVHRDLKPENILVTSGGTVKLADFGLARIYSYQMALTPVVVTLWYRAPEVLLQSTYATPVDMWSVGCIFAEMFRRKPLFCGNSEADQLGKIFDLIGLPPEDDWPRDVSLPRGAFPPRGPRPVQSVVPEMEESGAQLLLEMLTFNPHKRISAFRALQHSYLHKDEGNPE
T4 sequence (P24385 whole entry partner): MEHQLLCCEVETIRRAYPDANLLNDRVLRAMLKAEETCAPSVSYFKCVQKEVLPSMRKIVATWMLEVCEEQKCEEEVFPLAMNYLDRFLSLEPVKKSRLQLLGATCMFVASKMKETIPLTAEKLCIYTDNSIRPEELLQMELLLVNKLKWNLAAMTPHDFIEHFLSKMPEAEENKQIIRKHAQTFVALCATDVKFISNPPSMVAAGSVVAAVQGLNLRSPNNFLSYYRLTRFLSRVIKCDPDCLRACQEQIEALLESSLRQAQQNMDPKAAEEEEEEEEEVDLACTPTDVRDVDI
T6 sequence (Q9Y4K4 whole entry): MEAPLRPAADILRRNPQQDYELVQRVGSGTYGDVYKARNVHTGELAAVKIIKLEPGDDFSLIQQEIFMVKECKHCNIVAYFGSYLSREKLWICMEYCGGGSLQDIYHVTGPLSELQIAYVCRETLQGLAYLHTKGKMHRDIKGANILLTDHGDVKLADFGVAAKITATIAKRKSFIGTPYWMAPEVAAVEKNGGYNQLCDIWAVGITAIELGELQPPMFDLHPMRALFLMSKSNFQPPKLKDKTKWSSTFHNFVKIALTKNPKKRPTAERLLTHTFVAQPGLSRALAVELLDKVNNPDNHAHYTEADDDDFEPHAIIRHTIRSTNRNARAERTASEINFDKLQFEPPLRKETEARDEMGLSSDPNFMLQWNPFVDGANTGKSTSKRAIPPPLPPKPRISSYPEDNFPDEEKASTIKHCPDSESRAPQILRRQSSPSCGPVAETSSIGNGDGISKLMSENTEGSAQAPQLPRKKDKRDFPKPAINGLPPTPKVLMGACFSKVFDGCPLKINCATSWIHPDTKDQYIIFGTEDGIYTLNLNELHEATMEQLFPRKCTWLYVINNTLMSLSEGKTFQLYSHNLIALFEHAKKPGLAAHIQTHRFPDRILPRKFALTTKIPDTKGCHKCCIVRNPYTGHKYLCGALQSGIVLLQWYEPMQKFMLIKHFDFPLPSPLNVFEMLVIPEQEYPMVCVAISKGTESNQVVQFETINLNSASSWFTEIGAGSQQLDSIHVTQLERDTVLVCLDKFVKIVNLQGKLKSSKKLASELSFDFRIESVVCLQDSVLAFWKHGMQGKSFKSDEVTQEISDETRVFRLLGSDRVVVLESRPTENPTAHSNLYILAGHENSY
T8 sequence (P42336 whole entry M1043I): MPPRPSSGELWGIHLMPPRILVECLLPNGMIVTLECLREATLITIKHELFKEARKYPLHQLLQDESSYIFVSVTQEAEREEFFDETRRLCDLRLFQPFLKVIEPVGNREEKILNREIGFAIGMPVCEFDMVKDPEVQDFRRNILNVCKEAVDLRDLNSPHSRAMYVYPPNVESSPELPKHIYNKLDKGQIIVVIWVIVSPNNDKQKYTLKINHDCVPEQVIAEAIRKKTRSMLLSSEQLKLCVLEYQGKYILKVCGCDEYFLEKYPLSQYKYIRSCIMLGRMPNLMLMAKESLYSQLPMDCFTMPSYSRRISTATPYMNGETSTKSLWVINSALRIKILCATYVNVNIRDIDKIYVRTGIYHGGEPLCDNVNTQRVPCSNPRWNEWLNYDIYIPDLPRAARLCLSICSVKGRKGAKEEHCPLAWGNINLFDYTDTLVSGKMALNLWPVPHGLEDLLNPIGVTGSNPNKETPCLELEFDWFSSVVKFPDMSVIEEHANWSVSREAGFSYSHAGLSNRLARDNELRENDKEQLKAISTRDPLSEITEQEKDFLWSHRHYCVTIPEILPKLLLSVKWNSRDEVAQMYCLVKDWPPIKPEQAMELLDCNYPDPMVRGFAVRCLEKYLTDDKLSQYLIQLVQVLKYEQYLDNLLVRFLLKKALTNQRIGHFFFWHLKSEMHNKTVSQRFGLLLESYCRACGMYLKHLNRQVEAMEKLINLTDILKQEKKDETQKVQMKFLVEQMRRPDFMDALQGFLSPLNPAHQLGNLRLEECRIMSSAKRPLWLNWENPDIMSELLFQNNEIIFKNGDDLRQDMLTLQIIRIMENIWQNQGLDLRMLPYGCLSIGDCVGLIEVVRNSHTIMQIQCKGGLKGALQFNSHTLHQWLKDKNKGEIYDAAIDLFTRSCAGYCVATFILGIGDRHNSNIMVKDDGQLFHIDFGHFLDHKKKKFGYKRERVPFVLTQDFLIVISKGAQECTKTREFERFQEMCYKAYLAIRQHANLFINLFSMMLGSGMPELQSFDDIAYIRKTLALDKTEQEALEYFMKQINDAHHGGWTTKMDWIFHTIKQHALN
T3 sequence (Q13131 whole entry): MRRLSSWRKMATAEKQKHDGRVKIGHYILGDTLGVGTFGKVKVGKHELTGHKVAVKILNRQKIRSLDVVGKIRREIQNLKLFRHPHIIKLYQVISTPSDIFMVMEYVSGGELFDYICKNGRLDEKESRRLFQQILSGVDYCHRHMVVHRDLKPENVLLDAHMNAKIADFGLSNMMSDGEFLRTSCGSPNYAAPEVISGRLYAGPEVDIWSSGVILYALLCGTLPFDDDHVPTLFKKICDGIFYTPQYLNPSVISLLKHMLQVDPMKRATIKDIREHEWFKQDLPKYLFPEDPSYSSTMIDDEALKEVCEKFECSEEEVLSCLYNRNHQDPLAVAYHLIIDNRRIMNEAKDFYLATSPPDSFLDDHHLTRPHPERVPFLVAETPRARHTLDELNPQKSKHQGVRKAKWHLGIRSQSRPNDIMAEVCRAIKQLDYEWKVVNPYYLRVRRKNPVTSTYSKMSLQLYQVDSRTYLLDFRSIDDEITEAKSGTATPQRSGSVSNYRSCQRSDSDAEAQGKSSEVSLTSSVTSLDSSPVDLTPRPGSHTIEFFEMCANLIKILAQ

Row | Structure (SMILES) | remaining binding at 1 µM (ACVR1B) [%] | remaining binding at 1 µM (BTK) [%] | remaining binding at 1 µM (AMPK-alpha1) [%] | remaining binding at 1 µM (CDK4-cyclinD1) [%] | remaining binding at 1 µM (ULK3) [%] | remaining binding at 1 µM (MAP4K5) [%] | remaining binding at 1 µM (PFTAIRE2) [%] | remaining binding at 1 µM (PIK3CA(M1043I)) [%] | remaining binding at 1 µM (TYRO3) [%] | remaining binding at 1 µM (PHKG1) [%]
1 | Clc1cc(NCC2CC2)c2ncc(-c3ccc4[nH]ncc4c3)n2n1 [compound 2, 6-Chloro-N-(cyclopropylmethyl)-3-(1H-indazol-5-yl)imidazo[1,2-b]pyridazin-8-amine] | 89 | 98 | 96 | 88 | 78 | 98 | 100 | 59 | 69 | 91
2 | O=C(CN1CCOCC1)N[C@H]1CC[C@H](Nc2cc(Cl)nn3c(-c4ccc5[nH]ncc5c4)cnc23)CC1 [compound 26] | 91 | 100 | 85 | 93 | 95 | 87 | 40 | 81 | 86 | 17
3 | CN1CCC(CNc2cc(Cl)nn3c(-c4cc5nc(Nc6ccccc6)[nH]c5cc4F)cnc23)CC1 [compound 31, 6-Chloro-3-(6-fluoro-2-(phenylamino)-1H-benzo[d]imidazol-5-yl)-N-((1-methylpiperidin-4-yl)methyl)imidazo[1,2-b]pyridazin-8-amine] | 100 | 70 | 94 | 87 | 68 | 100 | 91 | 78 | 99 | 92
